Assay results as given in patent publication US6653289B1, “L-arabino-disaccharides of anthracyclines, processes for their preparation, and pharmaceutical compositions containing them” (Menarini Ricerche S.p.A., priority 1999, dated 2003).

Columns and labels:
[1] = test system: GLC-4 (pulmonary microcarcinoma); assay: cytotoxicity in vitro on GLC-4; assay type: cell-based, human; settings: read-out: IC50, concentration necessary for 50% inhibition of diseased cells growth, 24-h exposure to the drug
From the text: (§1) (R8=H, R9=R10=R12=OH, R11=NH2) described in patent application WO 95/09173 on lines H460 (pulmonary carcinoma) and GLC-4 (pulmonary microcarcinoma).

[2] = test system: pulmonary microcytoma GLC-4; assay: activity in vivo on human tumour line implanted s.c. in naked mice; settings: GLC-4 s.c. in naked mice, 6 mg/kg every 3-4 days, 5 cycles (total 30 mg/kg); for LCK (Log Cell Kill): T-C/DT×3.32; for TWI % (300 mg), Tumour Weight Inhibition %: determined 7-10 days after last treatment
Protocol: The activity in vivo of (Ia), compared with that of (V), was also evaluated on a human tumour line implanted s.c. in naked mice (pulmonary microcytoma GLC-4) after administration of 6 mg/kg of drug every 3-4 days, for 5 treatment cycles.
The results obtained are shown in Table 2, which reports the Tumour Weight Inhibition % (TWI% determined 7-10 days after the last treatment) and the Log Cell Kill [LCK in animals treated according to the formula: T-C/DT×3.32, where T and C are the days that tumours take to reach the significant weight fixed in each test. in treated animals (T) and in controls (C)].

[3] = test system: H460 (pulmonary carcinoma); assay: cytotoxicity in vitro on H460; assay type: cell-based; settings: read-out: IC50, concentration necessary for 50% inhibition of diseased cells growth, 24-h exposure to the drug
From the text: as §1

Structure (SMILES) | IC50 [1] [nM] | LCK (Log Cell Kill) [2] | TWI % (300 mg), Tumour Weight Inhibition % [2] [%] | IC50 [3] [nM]
C[C@@H]1O[C@@H](O[C@@H]2[C@H](C)O[C@@H](O[C@H]3C[C@](O)(C(=O)CO)Cc4c(O)c5c(c(O)c43)C(=O)c3ccccc3C5=O)C[C@@H]2O)C[C@H](N)[C@H]1O.Cl [Ia, 7-O-[2,6-dideoxy-4-O-(2,3,6-trideoxy-3-amino-α-L-arabino-hexopyranosyl)-α-L-lyxo-hexopyranosyl]-4-demethoxy-doxorubicinone chlorhydrate] | 11 | 1.1 | 93 | 10
CC1OC(OC2C(O)CC(OC3CC(O)(C(=O)CO)Cc4c(O)c5c(c(O)c43)C(=O)c3ccccc3C5=O)OC2C)CC(N)C1O.Cl [V, 7-O-[2,6-dideoxy-4-O-(2,3,6-trideoxy-3-amino-α-L-lyxo-hexopyranosyl)-α-L-lyxo-hexopyranosyl]-4-demethoxy-doxorubicinone chlorhydrate] | 55 | 0.4 | 60 | 14
